In PubChem BioAssay (NCI):
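48-hour exposure; five concentrations; linearly interpolated endpoints. TGI denotes the concentration required for complete inhibition of growth.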

Tests used:
Assay in all cases: inhibition of tumour cell growth, NCI panel, 48 h
[1] = tested on: HCT-15 colon
[2] = tested on: IGROV1 ovarian
[3] = tested on: M14 melanoma
[4] = tested on: NCI/ADR-RES ovarian
[5] = tested on: OVCAR-5 ovarian
[6] = tested on: SF-295 CNS
[7] = tested on: SF-539 CNS
[8] = tested on: SK-OV-3 ovarian
[9] = tested on: SNB-19 CNS

Compound	TGI [1] [µM]	TGI [2] [µM]	TGI [3] [µM]	TGI [4] [µM]	TGI [5] [µM]	TGI [6] [µM]	TGI [7] [µM]	TGI [8] [µM]	TGI [9] [µM]
CC(C)(C)OC(=O)n1c(Cl)c(C=O)c2ccccc21	70.4	> 100	82.9	58	72.3	> 100	89.1	> 100	> 100
OC1(c2ccc(Cl)cc2)c2c(c3ccccc3c3ccccc23)C2=NCCN21 (stereo not given)	> 100	18.2	27	25.5	46	28.1	24.5	31.3	27.8
COc1ccc(N2N=NN(C(C)C)/C2=C(/Cl)c2nnnn2-c2ccc(OC)cc2)cc1	31.4	28.7	21.9	61.2	26.9	30.4	33.5	32.8	31.6
Cn1c(COC(=O)NC2CCCCC2)c(COC(=O)NC2CCCCC2)c2ccc3cc(C=O)ccc3c21	> 100	> 100	> 100	> 100	> 100	> 100	> 100	> 100	> 100
Nc1ccccc1OCCCOc1ccccc1N	> 100	> 100	> 100	> 100	> 100	> 100	> 100	> 100	> 100
CN(C)CC1CCCc2ccccc2C1=O (stereo not given)	4.55	4.17	3.42	17.5	33.5	32.5	10.1	32.7	26.4
O=C(/C=C/c1ccccc1)Oc1cccc(Br)c1	42.2	> 100	> 100	> 100	> 100	68.3	> 100	> 100	> 100
COc1cc(/C=C/C(=N\NC(=S)NN)c2sc(NNC(C)=O)nc2C)ccc1O	> 100	> 100	> 100	> 100	> 100	> 100	> 100	> 100	> 100
O=C1c2cccnc2-c2nccc3c2c1nc1ccc(Br)cc13	0.116	0.143	0.0773	0.176	0.324	0.114	0.141	0.389	0.295
CO[C@]12CC(=O)C3(C(C[C@H]4CC5CC[C@H]6C[C@@H](OC(C)=O)CC[C@]6(OC(C)=O)C5C[C@@]43C)C1)C1C[C@H]3[C@@H]4CC[C@H]5C[C@@H](OC(C)=O)CC[C@]5(OC(C)=O)[C@H]4CC[C@]3(C)C12 (stereo not given in full)	> 100	> 100	> 100	> 100	> 100	> 100	> 100	> 100	> 100
N#Cc1c(N2CCCC2)nsc1Nc1ccc(F)cc1	> 100	> 100	> 100	> 100	> 100	> 100	> 100	> 100	> 100
C1=CN2C[n+]3ccc4ccccc4c3N=C2c2ccccc21	> 100	20.2	11.7	> 100	47	24	14.8	47.8	33.3
O=c1[nH]c(=O)n(COCc2ccccc2)c2ccccc12	> 100	> 100	> 100	92.7	> 100	> 100	> 100	> 100	> 100
O=C1CCC2(c3ccc(Cl)cc3)Nc3ncncc3N12 (stereo not given)	> 10	> 10	> 10	> 10	> 10	> 10	> 10	> 10	> 10
CCN(CC)C1Oc2cc3c(cc2C(c2cccc(OC)c2O)C1C)OCO3 (stereo not given)	> 53.2	> 56	12.6	53.8	48.5	15.4	6.3	> 61.3	31.4
CN(/N=C/c1ccc(Cl)cc1)C1=NCCCCN1	> 100	> 100	57.4	> 100	> 100	> 100	> 100	> 100	> 100
COc1ccc(N2C(=O)C3c4[nH]c5ccccc5c4C4c5ccccc5CC4C3C2=O)cc1 (stereo not given)	> 100	> 100	> 100	> 100	> 100	> 100	> 100	> 100	> 100
CC(=O)O[C@H]1C[C@](C)(O)[C@@]23CC([C@@H](OC(=O)C(C)(C)O)[C@@H](OC(C)=O)C2(COC(=O)c2ccccc2)[C@H]1OC(C)=O)C(C)(C)O3 (stereo not given in full)	> 100	> 100	> 100	> 100	> 100	> 100	> 100	> 100	> 100
CC(=O)OCC1OC(n2c(N)c(C#N)c(-c3cccc(Cl)c3)c(C#N)c2=S)C(OC(C)=O)C(OC(C)=O)C1OC(C)=O (stereo not given)	> 100	> 100	57.1	96.4	> 100	> 100	27.7	57.1	> 100
O=C1C=C(O)c2c(O)ccc(O)c2C1=O	> 100	> 100	> 100	> 100	> 100	> 100	> 100	> 100	> 100
O=C(c1ccccc1)c1c(C(F)(F)F)n([O-])c2cc(F)c(F)cc2[n+]1=O		6.79	1.49	1.63	2.98	5.66	1.67	> 49.5	10.8
COc1ccc(Cn2c3ccc([N+](=O)[O-])cc3c(=O)n2Cc2ccccn2)cc1	> 100	> 100	> 100	> 100	> 100	> 100	> 100	> 100	> 100

Compound	TGI [1] [µM]	TGI [2] [µM]	TGI [3] [µM]	TGI [4] [µM]	TGI [5] [µM]	TGI [6] [µM]	TGI [7] [µM]	TGI [8] [µM]	TGI [9] [µM]
C[N+]1([O-])[C@H]2CC(OC(=O)[C@H](CO)c3ccccc3)C[C@H]1[C@H]1O[C@H]12 (stereo not given in full)	> 100	> 100	> 100	> 100	> 100	> 100	> 100	> 100	> 100
COC12C=CC(CC1)C(C)(C)C2OS(C)(=O)=O (stereo not given)	> 100	> 100	> 100	> 100	> 100	> 100	> 100	> 100	> 100
S=C(N/N=C(\C(=N/NC(=S)N1CCCCC1)c1ccccn1)c1ccccn1)N1CCCCC1	> 100	> 100	50.3	> 100	> 100	> 100	> 100	> 100	> 100
O=c1c2cc(I)ccc2nc(SCc2nnco2)n1Cc1ccccc1	> 100	> 100	> 100	> 100	> 100	> 100	> 100	> 100	> 100
CN1C=COC1N=C1CCCCC1 (stereo not given)	> 100	> 100	> 100	> 100	> 100	> 100	> 100	> 100	12
COc1cc2[nH]c(=O)c3cc(C)cc4c(Cl)nc(c1OC)c2c43	> 100	> 100	> 100	> 100	> 100	> 100	> 100	> 100	> 100
COc1ccc(-c2nc(-c3cnccn3)n(Cc3ccccc3)n2)cc1	> 100	> 100	> 100	> 100	> 100	> 100	> 100	> 100	> 100
CCn1c(=O)c2c3ccc(OC)cc3[nH]c2c2ccc(OC)cc21	> 100	> 100	> 100	> 100	> 100	> 100	> 100	> 100	> 100
C[C@]12CC[C@H](O)CC1=CC[C@@H]1[C@@H]2CC[C@]2(C)C(=O)/C(=C/c3ccc([N+](=O)[O-])cc3)C[C@@H]12	> 100	21.8	> 100	61.1	50.9	20.6	20.9	22.6	27.8
CCOC(=O)C(NC(=O)CC)(Nc1ccc(S(=O)(=O)Nc2ccc(OC)nn2)cc1)C(F)(F)F (stereo not given)	> 100	> 100	> 100	> 100	> 100	> 100	> 100	> 100	> 100
O=C(N[C@H]1CCC[C@H]1C(=O)Nc1ccc(C(F)(F)F)cc1)OCc1ccccc1	> 100	> 100	> 100	> 100	> 100	> 100	> 100	> 100	> 100
CC(=O)OCC1OC(SC2=NC(=O)/C(=C/c3ccccc3)S2)C(OC(C)=O)C(OC(C)=O)C1OC(C)=O (stereo not given)	> 100	> 100	> 100	84	> 100	> 100	45.7	> 100	> 100
COc1cc([C@@H]2c3cc4c(cc3[C@@H](c3c(O)cc(O)c5c3O[C@H](c3ccc(O)c(O)c3)[C@H](OC(=O)c3cc(O)c(O)c(O)c3)C5)[C@H]3COC(=O)[C@H]23)OCO4)cc(OC)c1O	> 100	> 100	64.2	> 100	> 100	> 100	60.1	> 100	> 100
CC1C(C#N)(C#N)C(C#N)=C(N)C1(C)[N+](=O)[O-] (stereo not given)	> 100	> 100	> 100	> 100	> 100	> 100	> 100	> 100	> 100
COc1cc(C2c3cc(OC)c(OC)c(O)c3C(=O)C3CCC(=O)N32)cc(OC)c1OC (stereo not given)	> 100	> 100	> 100	> 100	> 100	> 100	> 100	> 100	> 100
CC(=O)c1ccc2c3c1O[C@H]1c4[nH]c5ccccc5c4C[C@@]4(O)[C@@H](C2)N(CC2CC2)CC[C@]314	25.3	30.1	31.3	26.6	28.1	29	29.3	35.9	20.8
C[C@@]12C[C@@H](c3ccccc3O1)N1Cc3ccccc3CSC1=N2	> 100	> 100	> 100	> 100	> 100	> 100	> 100	> 100	> 100
CC(=O)N1C(Nc2cccc3nc(C)ccc23)CCN1c1ccccc1 (stereo not given)	> 10	> 10	> 10	> 10	> 10	> 10	> 10	> 10	> 10
OC(C1CCCCCCCCCC1)C(O)C1CCCCCCCCCC1 (stereo not given)	> 100	> 100	> 100	> 100	> 100	> 100	> 100	> 100	> 100
OCC1OC(c2ccccc2)CC1O (stereo not given)	> 100	> 100	> 100	> 100	> 100	> 100	> 100	> 100	> 100
COC1=CC(=O)c2nc3ccccc3c3ccnc1c23	13.5	25.1	13.7	51.3	29.7	19.7	13.3	> 100	> 64.9
O=c1[nH]nc(Cc2ccc(Cl)cc2)n1/N=C/c1c[nH]c2ccccc12	> 100	> 100	> 100	> 100	> 100	> 100	> 100	> 100	> 100
